The values below come from EPA's ToxValDB 9.5.

Several values for one entry are separate records, joined by “and”; a condition that tells them apart may be missing. Identical values can stand only once. Bounds are passed on as bounds.

The LOAEL is the lowest tested level that showed an adverse finding. Usually LD50 stands for the dose at which mortality reaches 50%. As a reminder, the NOAEL is the highest dose or exposure tested at which no adverse effect was seen.

Series [1] concerns Homo sapiens. Particulars: clinical; oral; M/F; increased prothrombin time.
Series [2] deals with Homo sapiens. Particulars: clinical, oral.
Series [3] relates to Cavia porcellus. Particulars: acute, Guinea Pig.
The test system of series [4] is Mus musculus. Particulars: subchronic; duration: 13 weeks; oral; gavage; M/F; CD1; Urinary.
For series [5], the system named is Mus musculus. Particulars: subchronic; oral; M/F; kidney effects (renal tubular pathology, reduced kidney weight).
Series [6] deals with Homo sapiens. Particulars: clinical; duration: 1 days; inhalation; nose only; unknown; respiratory.
Series [7] concerns Homo sapiens. Particulars: clinical; Induction of resistant enterobacteriaceae.
In series [8] the test system is Rattus norvegicus. Particulars: oral, renal.
Series [9] relates to Rattus norvegicus. Particulars: inhalation, intermittent.
For series [10], the system named is Canidae. Particulars: chronic, oral, M/F, Dog Other.
Series [11] deals with Canidae. Particulars: chronic, oral, Dog Other.
In series [12] the test system is Mus musculus. Particulars: acute, oral.
The subject of series [13] is Neovison sp. Particulars: repeat dose other; oral; Mink.
Series [14] concerns Coturnix japonica. Particulars: repeat dose other; oral.
For series [15], the system named is Rattus norvegicus. Particulars: M/F.
The subject of series [16] is Rattus norvegicus. Particulars: uterotrophic; duration: 3 days; injection; intraperitoneal; Active.
The subject of series [17] is Rattus norvegicus. Particulars: for LC50: acute.
Series [18] has as its system Oryctolagus sp. Particulars: for LD50: acute.
The test system of series [19] is Rattus norvegicus. Put plainly: LC100; higher = less toxic. Particulars: acute; inhalation; Wistar.
For series [20], the system named is Rattus norvegicus. Particulars: duration: 2 years, oral, M/F, Crl, Reduced bodyweight gain.
Series [21] deals with Canidae. Particulars: oral, capsule, M/F, Histopathological changes in the spleen and bone marrow indicative of anaemia.
Where [22] appears, read: duration: 2 years, diet, increased absolute and relative weight of stomach and small intestine.
[23] abbreviates: short-term, inhalation, M, Sprague-Dawley.
The mark [24] stands for this setting: short-term, inhalation, New Zealand.
[25] abbreviates: duration: 12 months, diet, increased relative liver weight in male dogs.

With `CC(=O)CC(c1ccccc1)c1c(O)c2ccccc2oc1=O` (stereo not drawn) [Warfarin], the LOAEL in series [1] amounted to 0.029 mg/kg-day; in series [2] (Blood: Increased prothrombin time), 2 mg/day.
On to `CCCCCCCC/C=C\CCCCCCCC(=O)O` [Oleic acid], for which the LD50 in series [3] (dermal) was over 3000 mg/kg.
For `c1cc2ccc3cccc4ccc(c1)c2c34` [Pyrene], the NOAEL in [4] amounted to 75 mg/kg-day. For the same compound, in series [5], the LOAEL was 125 mg/kg-day and the NOAEL came to 75 mg/kg-day.
As for `FF` [Fluorine], in [6], the NOAEL came to 15.5 mg/m3.
In series [7], `CN(C)[C@@H]1C(=O)C(C(N)=O)=C(O)[C@@]2(O)C(=O)C3=C(O)c4c(O)ccc(Cl)c4[C@@](C)(O)[C@H]3C[C@@H]12` [Chlortetracycline] came in with an LOEL of 20 mg/day and an NOEL of 2 mg/day.
In the case of `[Ba]` [Barium], the NOAEL turned out to be 65 mg/kg-day in series [8] (subchronic, duration: 90 days, drinking water, M/F, Fischer 344) and 0.21 mg/kg-day in series [2] (duration: 10 weeks, drinking water, Cardiovascular system: Increased blood pressure). In [9] (developmental, duration: 4 months, Fetus: Fetotoxicity), this compound came in with an NOEL of 0.8 mg/m3.
In series [10] (setting [22]), `O=C(O)[C@@H]1[C@H](C(=O)O)[C@H]2CC[C@@H]1O2` [Endothal] displayed an LEL of 6 mg/kg-day. Besides, the NOEL in series [10] (setting [22]) came to 2 mg/kg-day; in [11] (duration: 2 years, diet, Small intestine: Increased weight + Stomach: Increased weight), 2 mg/kg-day.
In series [10] (histopathological liver), `CC(Oc1cc(Cl)c(Cl)cc1Cl)C(=O)O` (stereo not drawn) [2-(2,4,5-Trichlorophenoxy)propionic acid] yielded an LOAEL of 2.5 mg/kg-day and an NOEL of 0.75 mg/kg-day. This compound gave an NOEL in [11] (duration: 2 years, diet, Liver: Histopathology) of 0.75 mg/kg-day.
On to `O=C1OC(=O)C2CC=CCC12` (stereo not drawn) [Tetrahydrophthalic anhydride], for which the figures for the LD50 in series [3] (oral) and in [12] were 3500 mg/kg and 3300 mg/kg, respectively.
Consider `[Cl][Hg][Cl]` [Mercuric chloride], for which the figures for the NOAEL in series [13] and in series [14] were 1 mg/kg-day and 0.45 mg/kg-day, respectively. In addition, the LOAEL was 0.9 mg/kg-day in [14]; 0.015 mg/kg-day in series [8] (short-term, duration: 28 days, gavage, unknown, Wistar); 0.226 mg/kg-day in series [15] (subchronic, injection, subcutaneous, autoimmune effects (autoimmune glomerulonephritis)); 0.317 mg/kg-day and 0.633 mg/kg-day in series [15] (subchronic, oral, diet, autoimmune effects (autoimmune glomerulonephritis)). This compound had an LEL in [16] of 1 mg/kg-day.
With `CC(C)[N+](=O)[O-]` [2-Nitropropane], the LC50 is 2620 mg/m3 and 1460 mg/m3 in series [17] (inhalation, Sprague-Dawley); ≥ 12.1 µg/mL and ≤ 14.4 µg/mL in [17] (inhalation, Wistar). Besides, the NOAEL in series [17] (developmental, duration: 15 days, injection, Intraperitoneal, Sprague-Dawley) was under 170 mg/kg-day; in series [17] (reproduction developmental, duration: 15 days, injection, Intraperitoneal, F, Sprague-Dawley) it was 170 mg/kg-day; in series [17] (setting [23]) it was 98.4 mg/m3; in series [18] (setting [24]), 98.4 mg/m3. In addition, the LOAEL in [17] (setting [23]) came to 754 mg/m3; in [18] (setting [24]) it was 754 mg/m3; in series [15] (chronic, inhalation, liver focal vacuolization and nodules), 78 mg/m3; in series [9] (chronic, duration: 22 months, Liver: Lesions), 78 mg/m3. In addition, the LD50 in [18] (dermal) is over 200 mg/kg; in series [18] (dermal, New Zealand), over 2000 mg/kg; in series [18] (oral, gavage), ≥ 500 mg/kg and ≤ 750 mg/kg; in [12] (CD1), 393 mg/kg and ≥ 346 mg/kg and ≤ 446 mg/kg. The LC100 in [19] amounted to 53600 mg/m3.
For the compound `c1ccc2[nH]c(-c3cscn3)nc2c1` [Thiabendazole], the LOEL in series [20] (chronic, diet) is 40 mg/kg-day; in series [20] (feed), 40 mg/kg-day. Also, the NOEL was 10 mg/kg-day in [20] (chronic, diet); 10 mg/kg-day in [20] (feed); 10 mg/kg-day in [21] (chronic, duration: 1 years, Beagle); 10 mg/kg-day in series [21] (chronic, duration: 1 years, Dog Other); 10 mg/kg-day in [21] (duration: 1 year, Beagle); 10 mg/kg-day in [21] (duration: 1 year, Dog Other).
With `CCSC(=O)N(CC(C)C)CC(C)C` [Butylate], in series [10] (setting [25]), the LOAEL is 25 mg/kg-day and the NOAEL is 5 mg/kg-day. In addition, in series [11] (duration: 12 months, capsule, Liver: Increased relative weight), the NOEL was determined as 5 mg/kg-day.
